Test results published in a melting point compilation (Tetko et al.).

melting point [°C] | SMILES
107 to 108 | CC(C)CC1=CC(=Cc2ccc(-c3ccc(Br)cc3)o2)C(=O)O1
206 | COc1ccc(C2Nn3c(nnc3-c3cccc([N+](=O)[O-])c3)S2)cc1 (stereo not drawn)
212 to 213 | Cc1ccc(S(=O)(=O)c2ncsc2SCC(=O)c2ccc(Cl)cc2)cc1
137 to 143 | O=CC(C=O)c1ccc(Cl)cc1[N+](=O)[O-]
161 | O=[N+]([O-])c1ccc2c3c(ccc(C(Cl)=Cc4ccccc4)c13)CC2
92 to 93 | C=CCn1c2c(c3cc(OC)ccc31)CCc1cc(OC)ccc1-2
115 | O=C(Nc1nc(-c2ccc(Br)cc2)cs1)c1ccccc1
170 to 172 | COc1ccc(C=Nc2n[nH]c(N=Cc3ccc(OC)c(OC)c3)c2Cc2ccc(Cl)cc2)cc1OC
40 to 42 | COc1ccc(S(=O)(=O)Cl)cc1
93 to 95 | Cc1ccc(Oc2cccc(F)c2C#N)cc1
105 to 107 | COc1ccc([N+](=O)[O-])cc1N=C=S
231 to 233 | O=C(O)c1ccc(-c2ccccn2)s1
228 | c1ccc2cc(P(c3ccc4ccccc4c3)c3ccc4ccccc4c3)ccc2c1
198 | CCOc1ccc(C(=O)O)cc1
60 | OC(c1ccccc1)c1ccc(C(F)(F)F)cc1 (stereo not drawn)
119 | COc1c(OC)c2occc2c2oc(=O)ccc12
147 to 150 | CC(=O)C1C(=O)c2cccc([N+](=O)[O-])c2C1=O (stereo not drawn)
161 to 163 | S=c1[nH]ccn1-c1cccc(Cl)c1
307 to 308 | CC1=NN(c2ccccc2)C(=O)C1C(Br)C1(Br)C(=O)N(c2ccccc2)N=C1C (stereo not drawn)
150 | CN(C)c1ccc(N=C(C#N)c2cccc(C(C#N)=Nc3ccc(N(C)C)cc3)c2)cc1
5.5 | CCOc1cccc2ccccc12
162 | CN(C)c1ccc(C=C2C(=O)OC(C)(C)OC2=O)cc1

melting point [°C] | SMILES
288 | Cc1ccccc1NC=C1C(=O)NN=C1c1c(O)c2ccccc2n(C)c1=O
105 | Brc1cccc2c(/C=N/Nc3ccccc3)cccc12
187 | CCC(c1ccc(O)cc1)C(CC)c1ccc(O)cc1 (stereo not drawn)
61 to 63 | Cc1onc(-c2ccccc2)c1CBr
140 | O=C(c1ccco1)c1noc(-c2ccc(Cl)cc2)c1S(=O)(=O)c1ccccc1
165 | Brc1ccc2cc(Br)ccc2c1
167 | COc1ccc(-c2cc3nc(C)cc(C(F)(F)F)n3n2)cc1
65 to 68 | Cc1ccc(-c2ccc(C)s2)s1
188 | CCOc1ccc2nc(S(N)(=O)=O)sc2c1
186 to 188 | O=C(O)c1csc(-c2ccc(C(F)(F)F)cc2)n1
87.5 to 90.8 | N#Cc1cccc(C(=O)Cc2cccc(Cl)c2)c1
51 to 53 | CNCc1ccc(-c2noc(C)n2)cc1
207 to 209 | O=C(O)c1cccc(-c2ccccn2)c1
162 to 165 | CC(=NO)c1ccn(S(=O)(=O)c2ccccc2)c1
147 | CC(C)(C)c1ccc2cc3ccccc3cc2c1
92 | Cc1ccc(S(=O)(=O)OCC2OC(C)(C)OC2COS(=O)(=O)c2ccc(C)cc2)cc1 (stereo not drawn)
142 | N#Cc1c(-c2ccccc2)c2c(=O)[nH]n(-c3ccccc3)c2[nH]c1=S
115 to 118 | O=Cc1cc(C#Cc2ccccc2)cs1
65 | CC(=O)NCc1ccccc1C(c1ccc(C)o1)c1ccc(C)o1
62 | CCCCc1cc2ccccc2c(O)c1C(C)=O
192 to 193 | O=C1OC(c2ccccc2)=NC1=Cc1ccc(Br)cc1

The next lines start with the molecule.

SMILES | melting point [°C]
NC(=S)Nc1cccc(F)c1 | 113 to 117
CCCc1c(O)ccc2c(=O)cc(C(=O)O)oc12 | 264 to 267
CC(=O)OCC1OC(C#N)=CC(OC(C)=O)C1OC(C)=O (stereo not drawn) | 112 to 115
COc1ccc(C(=CC(=O)N2CCOCC2)c2ccc(F)cc2)cc1OC | 108
CCc1c(C)nc(NC(=O)NS(=O)(=O)c2cccs2)nc1O | 179 to 180
O=C(O)c1ccc2nonc2c1 | 157 to 158
NC(Cc1ccc(Br)cc1)C(=O)O (racemic) | 262 to 263
O=C(O)C1=CC(=C(c2ccc(O)c(C(=O)O)c2)c2ccc(O)c(C(=O)O)c2)C=CC1=O | 300
COc1cc(F)ccc1C(C)=O | 52
CCCC1(O)CCC2C3CCC4CC(OC(C)=O)CCC4(C)C3CCC21C (stereo not drawn) | 120 to 121
CNc1ccccc1OC | 30 to 33
O=C(O)CCc1ccc(Cl)cc1 | 119
CC(CCC(N)=O)n1nc2ccccc2n1 (stereo not drawn) | 102
O=C(CCl)Nc1ccc(F)c(Cl)c1 | 96 to 98
CCCCCCCCCCCCCCCC1CCCCC1 | 29
O=C(O)c1cccnc1Cl | 176 to 178
CCOc1ccc(NC(=O)CN)cc1 | 100
Cc1noc(C)c1-c1nc(CCl)no1 | 88 to 90
O=C(O)C=Cc1ccc(F)cc1C(F)(F)F | 182
CN1CCCN(CC#N)CCN(CC#N)CCCN(CC#N)CC1 | 88
Cc1cnc(N)c(C)n1 | 96
O=C(Cc1ccccc1)OCc1c([N+](=O)[O-])cccc1[N+](=O)[O-] | 90

SMILES | melting point [°C]
Cc1oc(C(C)(C)C)cc1C(=O)O | 92
O=C=NC1CCC(N=C=O)CC1 (stereo not drawn) | 59 to 64
CNC(=O)Oc1ccc(C)c(C)c1Cl | 124
Cn1ccccc1=S | 89.5
Nc1ccc2c(n1)[nH]c1ccccc12 | 202
Cc1cc2cc3c(C)cc(=O)oc3c(C)c2o1 | 230 to 234
CC=C1CC(C)C(O)(CO)C(=O)OCC2=CCN3CCC(OC1=O)C23 (stereo not drawn) | 212
Cc1ccc(O[Si]23OCCN(CCO2)CCO3)cc1 | 188
CC(C)C1=C(O)C(=O)C2=C(C1=O)[C@@H]1O[C@@H]1[C@H]1C(C)(C)CCC[C@]21C | 202
Cc1cc(Cl)nn1C | 47.5
O=c1[nH]cnc2c1ncn2C1CC(O)C(CO)O1 (stereo not drawn) | 250
COc1cc(C(C)=O)ccc1F | 52 to 54
CCCCCCCCCOC(C)=O | -26
CC(=O)N(C(C)=O)c1ccccc1 | 37.5
Cc1ccc(O)c(F)c1F | 37
COC1=CC(=O)C2(C)CCC1C2(C)C (stereo not drawn) | 55
OCCOCCOCCOCCOCCOCCO | 6
CC1=C(O)C(=O)CC(C)(C)C1 | 89
Cc1cc(Cl)cc(C=O)c1O | 67 to 68
CC(C)(C)c1cc(C(F)(F)F)nc(N)n1 | 48 to 50
O=Cc1ncccc1F | 49 to 52
CSc1nc(N)cc(N)n1 | 189 to 193

SMILES | melting point [°C]
Cc1ccnc(Cl)n1 | 47
CC(CCC(=O)O)C1CCC2C3C(=O)CC4CC(C(=O)O)CCC4(C)C3CC(C(=O)O)C12C (stereo not drawn) | 207 to 209
CSc1nc(=O)n(CCO)c2c1CCC2 | 193 to 195
Cc1cc(C(=O)O)n(C)n1 | 209 to 211
N#CC1=C(N)OC2=C(CCCC2)C1c1ccccc1 (stereo not drawn) | 261
CCC(Cc1c(I)cc(I)c(O)c1I)C(=O)O (stereo not drawn) | 147
CCOC(=O)c1cc(C)n(Cn2nc(C(=O)OCC)cc2C)n1 | 130
CN(C)c1nnc(Br)c(-c2nc(N(C)C)nnc2Br)n1 | 123
CC1=C(C)C([Si](C)(C)C2C(C)=C(C)C(C)=C2C)C(C)=C1C | 65 to 68
N#CCCc1ccc(O)cc1 | 56
O=C1NC(=S)NC(=O)C1=Cc1ccc(Br)o1 | 215
COC1=CC2C3Cc4ccc(OC)c(O)c4C2(CCN3C)CC1=O (stereo not drawn) | 162
O=C(O)c1cc(S(=O)(=O)F)c2ccccc2c1O | 300
CC1=C(CCO)SC2=Nc3nc(C)ncc3CN21 | 229
COS(=O)(=O)Cl | -70
Cn1cc(Br)c(N)n1 | 98
O=S(=O)(Cl)c1cc(Cl)ccc1F | 43
Nc1ccc(CN2CCS(=O)(=O)CC2)cc1 | 156
CCC(=O)C1(c2cccc(O)c2)CCN(C)CC1 | 156
O=[N+]([O-])c1cccnc1NC1CC1 | 61 to 63
c1ccc(Nc2ccccn2)nc1 | 90.5
N#Cc1cc(Cl)ccc1Cl | 130 to 132

SMILES | melting point [°C]
Nc1cc(Br)ccn1 | 146
CC(=O)N(C)c1ccccc1 | 103
COC(=O)[C@H](C)NC(=O)c1ccccc1 | 61 to 63
CCCSP(=O)(OCC)SCCC | 70
Cc1c(F)c(F)c(COC(=O)C2C(C=C(Cl)C(F)(F)F)C2(C)C)c(F)c1F (stereo not drawn) | 44.6
C=Nc1cnn(-c2ncnc3c2cnn3C)c1C=COCC | 155
C/C(CCc1ccc2c(c1)NC(C)CC2)=N\NC(N)=O (stereo not drawn) | 128
CC(=S)Nc1ccccc1 | 77.5
FC(F)(F)C(F)(F)C(F)(F)C(F)(F)C(F)(F)C(F)(F)F | -4
O=C(O)c1nc2ccccc2nc1O | 267 to 268
COC(=O)C1CC(=O)CN1C(=O)OC(C)(C)C (stereo not drawn) | 38
N#Cc1ccc(O)c([N+](=O)[O-])c1 | 143 to 148
O=C(O)c1cc(Cl)cc(Cl)c1Cl | 166
O=C(NCO)c1ccccc1 | 95
Sc1nc2cc(Cl)c(Cl)cc2[nH]1 | 300
CS(=O)(=O)N1CCNCC1 | 99 to 100
Cc1ccc2sc(C(=O)CBr)c(C)c2c1 | 123 to 125
CC(=O)c1cccc(Cl)c1O | 80 to 83
CC(=O)c1ccc(S(=O)(=O)NC(=O)NC2CCCCC2)cc1 | 188
